PubChem BioAssay (NCI)
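Method: 48-hour compound exposure of cells in 96-well plates, five concentrations, linear interpolation of endpoints. TGI is the concentration that stops growth completely.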

What was measured:
Assay in all cases: growth of human tumour cells (NCI), 48 h
[1] = test system: A498 renal
[2] = test system: BT-549 breast
[3] = test system: DU-145 prostate
[4] = test system: HCC-2998 colon
[5] = test system: HCT-116 colon
[6] = test system: HL-60(TB) leukemia
[7] = test system: IGROV1 ovarian
[8] = test system: K-562 leukemia
[9] = test system: LOX IMVI melanoma
[10] = test system: MCF7 breast
[11] = test system: RXF 393 renal
[12] = test system: SK-MEL-2 melanoma
[13] = test system: SNB-75 CNS
[14] = test system: SW-620 colon
[15] = test system: TK-10 renal
[16] = test system: HOP-92 NSCLC
[17] = test system: HS 578T breast

SMILES	TGI [1]	TGI [2]	TGI [3]	TGI [4]	TGI [5]	TGI [6]	TGI [7]	TGI [8]	TGI [9]	TGI [10]	TGI [11]	TGI [12]	TGI [13]	TGI [14]	TGI [15]	TGI [16]	TGI [17]
Oc1cccc(-c2nc3cc(F)ccc3s2)c1	27.6 µM	45.1 µM	57.9 µM	23.2 µM	53.8 µM	61 µM	33.1 µM	> 100 µM	34.7 µM	51.4 µM	> 100 µM	43.2 µM	39.4 µM	> 100 µM	37.4 µM	–	–
COc1cc2c3c(c1OC)C1(C=CC(=O)C=C1)C[C@H]3N(C)CC2	–	–	–	> 100 µM	> 100 µM	–	> 100 µM	–	> 100 µM	–	> 100 µM	> 100 µM	> 100 µM	> 100 µM	> 100 µM	> 100 µM	–
Nc1ccc(S2(c3ccc(N)cc3)C=C(c3ccccc3)C(c3ccccc3)=C2)cc1	> 90.3 µM	–	> 90.3 µM	> 100 µM	> 100 µM	> 100 µM	> 100 µM	> 100 µM	> 100 µM	> 100 µM	> 100 µM	> 88.4 µM	> 100 µM	> 100 µM	> 85.5 µM	> 100 µM	> 100 µM
O=c1oc2ccc([N+](=O)[O-])cc2c(Nc2ccc3c(c2)Oc2ccccc2O3)c1[N+](=O)[O-]	–	> 100 µM	> 100 µM	66.4 µM	> 100 µM	40.2 µM	> 100 µM	86.7 µM	94 µM	67.5 µM	> 100 µM	44.2 µM	> 100 µM	–	> 100 µM	54.1 µM	> 100 µM
COc1cc(OC)c(C2c3cc4c(cc3OC(N3CCCC3)C2C)OCO4)c(OC)c1 (stereo not drawn)	–	–	59.2 µM	21.9 µM	16.7 µM	–	52.8 µM	58.2 µM	28.4 µM	48.1 µM	–	57.7 µM	–	> 100 µM	> 100 µM	–	18.1 µM
CCOC(=O)C1C2CCC1CC(=NNc1ccc([N+](=O)[O-])cc1[N+](=O)[O-])C2 (stereo not drawn)	–	> 50 µM	> 50 µM	> 50 µM	> 50 µM	–	> 50 µM	> 50 µM	> 50 µM	> 50 µM	> 50 µM	> 50 µM	> 50 µM	> 50 µM	> 50 µM	48.7 µM	–
Cc1ccc(O)c(-c2cscn2)c1	70 µM	> 100 µM	–	> 100 µM	> 100 µM	22.2 µM	> 100 µM	> 100 µM	> 100 µM	> 100 µM	–	> 100 µM	–	> 100 µM	> 100 µM	> 100 µM	> 100 µM
COc1ccc(C2COc3cc(O)c(O)cc3C2)cc1 (stereo not drawn)	17.4 µM	–	–	184 µM	42.1 µM	5.41 µM	148 µM	34.2 µM	500 µM	176 µM	20.3 µM	146 µM	164 µM	–	–	24 µM	–
Cn1c2ccccc2c(=O)c2cccc(C(=O)NC(CCCN=C(N)N)C(=O)O)c21 (stereo not drawn)	–	> 100 µM	> 100 µM	> 100 µM	> 100 µM	–	> 100 µM	> 100 µM	> 100 µM	> 100 µM	–	> 100 µM	> 100 µM	> 100 µM	> 100 µM	–	> 100 µM
Cc1ccc(S(=O)(=O)NC(=O)N[C@@H](Cc2cnc[nH]2)C(=O)O)cc1	–	> 100 µM	> 100 µM	–	> 100 µM	> 100 µM	> 100 µM	> 100 µM	> 100 µM	> 100 µM	> 100 µM	> 100 µM	> 100 µM	> 100 µM	> 100 µM	> 100 µM	> 100 µM
CSc1sc2ccccc2[s+]1	> 100 µM	–	–	> 100 µM	> 100 µM	> 100 µM	> 100 µM	> 100 µM	> 100 µM	–	> 100 µM	> 100 µM	> 100 µM	> 100 µM	> 100 µM	> 100 µM	–
O=C1O[C@H](c2ccc3c(c2)OCO3)[C@H]2CO[C@@H](c3ccc4c(c3)OCO4)[C@@H]12	–	> 100 µM	–	> 100 µM	> 100 µM	> 100 µM	> 100 µM	> 100 µM	> 100 µM	> 100 µM	> 100 µM	> 100 µM	–	> 100 µM	> 100 µM	> 100 µM	> 100 µM
CSc1cnc2ccccc2c1SC1CN(Cc2ccccc2)c2ccccc2C1=O (stereo not drawn)	> 100 µM	> 100 µM	> 100 µM	> 100 µM	> 100 µM	> 100 µM	> 100 µM	> 100 µM	> 100 µM	> 100 µM	> 100 µM	> 100 µM	> 100 µM	> 100 µM	> 100 µM	> 100 µM	–
S=C(Nc1ccc2c(c1)oc1ccccc12)c1cccnc1	–	> 100 µM	> 100 µM	> 100 µM	> 100 µM	–	> 100 µM	–	> 100 µM	> 100 µM	–	> 100 µM	49.7 µM	> 100 µM	> 100 µM	> 100 µM	–
Cc1cc(S(=O)(=O)Nc2nc3cc(-c4ccc(Cl)cc4)sc3c(=O)n2N)c(S)cc1Cl	–	> 100 µM	> 100 µM	> 100 µM	> 100 µM	–	> 100 µM	> 100 µM	> 100 µM	> 100 µM	> 100 µM	> 100 µM	> 100 µM	> 100 µM	> 100 µM	> 100 µM	> 100 µM
O=NN(CCCl)C(=O)NC1CCC(O)CC1 (stereo not drawn)	> 100 µM	–	–	> 100 µM	> 94.4 µM	41.9 µM	> 100 µM	> 77.6 µM	> 60.6 µM	> 100 µM	> 71.5 µM	> 100 µM	> 79.7 µM	> 100 µM	–	31.9 µM	–
